Laboratory results taken from patent US20220324815A1, “2-PHENOXY-PYRIMIDINE DERIVATIVES AS HERBICIDAL COMPOUNDS” (SYNGENTA CROP PROTECTION AG, priority 2019, published 2022).

Legend:
Assay type in all cases: in vivo
Details in all cases: 250 g/ha unless otherwise stated, evaluated after 13 days, five-point scale
Setaria faberi (SETFA) [1] = experiment: Test 1 glasshouse herbicide test, post-emergence application (Table B1)
Summary of the method: (§1)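 Pots sown in standard soil; sprayed 1 day (pre-emergence) or 8 days (post-emergence) after sowing at 250 g/ha unless stated, in acetone/water (50:50) with 0.5% Tween 20. Glasshouse 24/16 °C, 14 h light, 65% humidity; damage scored at 13 days on a 1–5 scale (5=81–100%, 1=0–20%).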

Lolium perenne (LOLPE) [2] = experiment: as above
Summary of the method: as §1

[3] = test system: Ipomoea hederacea (IPOHE); experiment: as above
Summary of the method: as §1

[4] = test system: Amaranthus retoflexus (AMARE); experiment: as above
Summary of the method: as §1

[5] = test system: Echinochloa crus-galli (ECHCG); experiment: as above
Summary of the method: as §1

Solanum nigrum (SOLNI) [6] = experiment: as above
Summary of the method: as §1

Setaria faberi (SETFA) [7] = experiment: Test 1 glasshouse herbicide test, pre-emergence application (Table B2)
Summary of the method: as §1

Lolium perenne (LOLPE) [8] = experiment: as above
Summary of the method: as §1

[9] = test system: Ipomoea hederacea (IPOHE); experiment: as above
Summary of the method: as §1

[10] = test system: Amaranthus retoflexus (AMARE); experiment: as above
Summary of the method: as §1

[11] = test system: Echinochloa crus-galli (ECHCG); experiment: as above
Summary of the method: as §1

Solanum nigrum (SOLNI) [12] = experiment: as above
Summary of the method: as §1

| Compound | % phytotoxicity SETFA, post-emergence application (Setaria faberi (SETFA) [1]) | % phytotoxicity LOLPE, post-emergence application (Lolium perenne (LOLPE) [2]) | % phytotoxicity IPOHE, post-emergence application [3] | % phytotoxicity AMARE, post-emergence application [4] | % phytotoxicity ECHCG, post-emergence application [5] | % phytotoxicity SOLNI, post-emergence application (Solanum nigrum (SOLNI) [6]) | % phytotoxicity SETFA, pre-emergence application (Setaria faberi (SETFA) [7]) | % phytotoxicity LOLPE, pre-emergence application (Lolium perenne (LOLPE) [8]) | % phytotoxicity IPOHE, pre-emergence application [9] | % phytotoxicity AMARE, pre-emergence application [10] | % phytotoxicity ECHCG, pre-emergence application [11] | % phytotoxicity SOLNI, pre-emergence application (Solanum nigrum (SOLNI) [12]) |
| --- | --- | --- | --- | --- | --- | --- | --- | --- | --- | --- | --- | --- |
| FC(F)(F)CCSc1c(Cl)cccc1Oc1ncc(Cl)cn1 [Compound A10, 5-chloro-2-[3-chloro-2-(3,3,3-trifluoropropylsulfanyl)phenoxy]pyrimidine] | 5 (5=81 to 100%) | 5 (5=81 to 100%) | 4 (4=61 to 80%) | 5 (5=81 to 100%) | 5 (5=81 to 100%) | 5 (5=81 to 100%) | 5 (5=81 to 100%) | 4 (4=61 to 80%) | 3 (3=41 to 60%) | 5 (5=81 to 100%) | 5 (5=81 to 100%) | 4 (4=61 to 80%) |
| [O-][S+](CCC(F)(F)F)c1c(Cl)cccc1Oc1ncc(Cl)cn1 (stereo not drawn) [Compound A11] | 5 (5=81 to 100%) | 4 (4=61 to 80%) | 5 (5=81 to 100%) | 5 (5=81 to 100%) | 5 (5=81 to 100%) | 5 (5=81 to 100%) | 5 (5=81 to 100%) | 5 (5=81 to 100%) | 5 (5=81 to 100%) | 5 (5=81 to 100%) | 5 (5=81 to 100%) | 5 (5=81 to 100%) |
| O=S(=O)(CCC(F)(F)F)c1c(Cl)cccc1Oc1ncc(Cl)cn1 [Compound A12] | 5 (5=81 to 100%) | 5 (5=81 to 100%) | 4 (4=61 to 80%) | 5 (5=81 to 100%) | 5 (5=81 to 100%) | 5 (5=81 to 100%) | 5 (5=81 to 100%) | 5 (5=81 to 100%) | 5 (5=81 to 100%) | 5 (5=81 to 100%) | 5 (5=81 to 100%) | 5 (5=81 to 100%) |
| N#Cc1cccc(Oc2ncc(Cl)cn2)c1SCCC(F)(F)F [Compound A13] | 5 (5=81 to 100%) | 5 (5=81 to 100%) | 4 (4=61 to 80%) | 5 (5=81 to 100%) | 5 (5=81 to 100%) | 5 (5=81 to 100%) | 5 (5=81 to 100%) | 5 (5=81 to 100%) | 4 (4=61 to 80%) | 5 (5=81 to 100%) | 5 (5=81 to 100%) | 5 (5=81 to 100%) |
| N#Cc1cccc(Oc2ncc(Cl)cn2)c1[S+]([O-])CCC(F)(F)F (stereo not drawn) [Compound A14] | 5 (5=81 to 100%) | 4 (4=61 to 80%) | 5 (5=81 to 100%) | 5 (5=81 to 100%) | 5 (5=81 to 100%) | 5 (5=81 to 100%) | 5 (5=81 to 100%) | 3 (3=41 to 60%) | 5 (5=81 to 100%) | 5 (5=81 to 100%) | 5 (5=81 to 100%) | 5 (5=81 to 100%) |
| N#Cc1cccc(Oc2ncc(Cl)cn2)c1S(=O)(=O)CCC(F)(F)F [Compound A15] | 5 (5=81 to 100%) | 4 (4=61 to 80%) | 5 (5=81 to 100%) | 5 (5=81 to 100%) | 5 (5=81 to 100%) | 5 (5=81 to 100%) | 5 (5=81 to 100%) | 5 (5=81 to 100%) | 5 (5=81 to 100%) | 5 (5=81 to 100%) | 5 (5=81 to 100%) | 5 (5=81 to 100%) |
| Clc1cnc(Oc2ccccc2SCc2ccccc2)nc1 [Compound A16] | 2 (2=21 to 40%) | 1 (1=0 to 20%) | 1 (1=0 to 20%) | 4 (4=61 to 80%) | 1 (1=0 to 20%) | 3 (3=41 to 60%) | 2 (2=21 to 40%) | 1 (1=0 to 20%) | 1 (1=0 to 20%) | 4 (4=61 to 80%) | 2 (2=21 to 40%) | 1 (1=0 to 20%) |
| O=S(=O)(CCCC(F)(F)F)c1c(Cl)cccc1Oc1ncc(Cl)cn1 [Compound A24] | 5 (5=81 to 100%) | 5 (5=81 to 100%) | 5 (5=81 to 100%) | 5 (5=81 to 100%) | 5 (5=81 to 100%) | 5 (5=81 to 100%) | 5 (5=81 to 100%) | 4 (4=61 to 80%) | 5 (5=81 to 100%) | 5 (5=81 to 100%) | 5 (5=81 to 100%) | 5 (5=81 to 100%) |
| FC(F)(F)CCCSc1c(Cl)cccc1Oc1ncc(Cl)cn1 [Compound A25] | 5 (5=81 to 100%) | 5 (5=81 to 100%) | 3 (3=41 to 60%) | 5 (5=81 to 100%) | 5 (5=81 to 100%) | 5 (5=81 to 100%) | 5 (5=81 to 100%) | 5 (5=81 to 100%) | 1 (1=0 to 20%) | 5 (5=81 to 100%) | 5 (5=81 to 100%) | 5 (5=81 to 100%) |
